Experiments:
Format in all cases: in vivo, BALB/c mice
[1] = tested on: draining lymph node cells; experiment: Immunization potential: lymph node cell proliferation ([3H]thymidine intake) after subcutaneous footpad injection; details: s.c. footpads, nanoparticles corresponding to 20 μg peptide, FIG. 1; for cell proliferation response (thymidine intake) to the injected T cell recognizable epitope peptide: day 11 lymph node cells stimulated with P1 or P2 20 μg/ml; for cell proliferation response (thymidine intake) to SBP: day 11 lymph node cells stimulated with SBP 10 μg/ml
Experimental: (§1) Subcutaneously injected into the footpads of BALB/c mice (6-week-old male) was 100 μl (50 μl for each footpad) of a suspension of biodegradable nanoparticles having immobilized thereon Cryj1 or Cryj2 T cell recognizable epitope peptide (P1 or P2) (the amount of nanoparticles corresponding to 20 μg of the peptide) or nanoparticles having no peptide immobilized thereon. On day 11, a draining lymph node was removed to collect lymph node cells, which were then suspended in a mixture of RPM 11640 medium and 10% fetal calf serum (FCS). Such cells from two mice were combined together for use in each group. The cells were placed onto a 96-well incubation plate in an amount of 5×10^5 in each well. Further placed into each well as an antigen stimulus was P1 or P2 to a final concentration of 20 μg/ml or a cedar pollen roughly purified antigen (Sugi Basic Protein, SBP, Asahi Food and Health Care Co., Ltd.) in an amount of 10 μg/ml. Half of the mixture to be incubated was replaced by a fresh mixture to be incubated and containing [^3H] tritium-thymidine (0.5 μCi) 48 hours after the start of incubation. The cells were then collected onto a glass filter 16 hours thereafter by a cell harvester, and the [^3H] tritium intake (thymidine intake) was measured by a liquid scintillation counter for the evaluation of cell proliferation. The SBP mentioned above is an allergen containing both Cryj1 and Cryj2.

[2] = tested on: draining lymph node cells; experiment: Ocular (conjunctival) administration, SBP sensitization: cell proliferation (thymidine intake) on SBP stimulation; details: 5 μg peptide eight times, SBP sensitization day 16, SBP 10 μg/ml, versus ocularly untreated mice, FIG. 3
Experimental: as §1, with “Further placed into each well as an antigen stimulus was P1 or P2 to a final concentration of 20 μg/ml or a cedar pollen roughly purified antigen (Sugi Basic Protein, SBP, Asahi Food and Health Care Co., Ltd.) in an amount of 10 μg/ml. Half of the mixture to be incubated was replaced by a fresh mixture to be incubated and containing [^3H] tritium-thymidine (0.5 μCi) 48 hours after the start of incubation.” left out, “The SBP mentioned above is an allergen containing both Cryj1 and Cryj2.” left out
Mucosal administration of antigens is thought promising in immunotherapy, and the conjunctiva is considered to be one of the routes of administration (J. Immunol. 2000, 164: 4543-4550). […] The proliferation of cells was measured by the same method as described in Example 2. […]

[3] = tested on: interferon-γ; experiment: Ocular (conjunctival) administration: interferon-γ production by sandwich ELISA; details: 5 μg peptide eight times, supernatant 64 hours, SBP 10 μg/ml, versus ocularly untreated mice, FIG. 3
Experimental: (§2) Mucosal administration of antigens is thought promising in immunotherapy, and the conjunctiva is considered to be one of the routes of administration (J. Immunol. 2000, 164: 4543-4550). Biodegradable nanoparticles having immobilized thereon T cell recognizable epitope peptide were ocularly-instilled to investigate the influence on the response to the subsequent antigen sensitization. A saline solution of Cryj2 T cell recognizable epitope peptide (P2) (5 μg of the peptide) or a suspension of P2 immobilized nanoparticles (corresponding to 5 μg of the peptide) administered dropwise, in an amount of 10 μl, to the conjunctivas of the eyes of BALB/c mice (7-week-old male) eight times (on days 1-4 and days 6-9). On day 16, a suspension of 5 μg of cedar pollen roughly purified antigen SBP in Freund's incomplete adjuvant was injected for antigen sensitization into the right footpads to give rise to an immune response. […] The proliferation of cells was measured by the same method as described in Example 2. For the measurement of cytokine production, the supernatant was collected 64 hours after the start of incubation to quantitatively determine interleukin-5 and interferon-γ by sandwich ELISA using Bio-Plex cytokine assay system (product of Bio-Rad).

[4] = tested on: interleukin-5; experiment: Ocular (conjunctival) administration: interleukin-5 production by sandwich ELISA; details: 5 μg peptide eight times, supernatant 64 hours, SBP 10 μg/ml, versus ocularly untreated mice, FIG. 3
Experimental: as §2

Row | Sequence | cell proliferation response (thymidine intake) to the injected T cell recognizable epitope peptide [1] | cell proliferation response (thymidine intake) to SBP [1] | cell proliferation response (thymidine intake) to the stimulation with the antigen [2] | production of interferon-γ (Th1 cytokine) [3] | production of interleukin-5 (Th2 cytokine) [4]
1 | KQVTIRIGCKTSSS [P1, in b77 the label stands for the P1-immobilized nanoparticles injected] | specific cell proliferation response was observed | observed was a response to the SBP | – | – | –
2 | RAEVSYVHVNGAKF [P2 alone] | specific cell proliferation response was observed | observed was a response to the SBP | lower | lower | reduced to nearly the same extent
